# Assay: gradient 5% acetonitrile 3 min, to 50% in 2 min, to 85% in 15 min, held 3 min, 100 µL/min
# Settings: column: Zorbax Extend-C18 2.1 x 50 mm; eluents: water / acetonitrile, 0.1% formic acid
# Outline: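 A Zorbax Extend-C18 column (2.1 × 50 mm, 1.8 μm) run at 100 μL/min with water and acetonitrile, both containing 0.1% formic acid, separated mixtures of ~100 pure standards. The HPLC was coupled to a quadrupole time-of-flight mass spectrometer operated in positive and negative ionization mode, with dead and dwell volumes of 40 μL and 900 μL. Each retention time was taken from a computationally picked adduct peak that was then manually inspected.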
row,Structure (SMILES),RP-LC retention time [s]
1,COC(=O)c1ccc(NC(=O)C2CCN(S(=O)(=O)c3ccc4c(c3)sc(=O)n4C)CC2)cc1,854
2,COc1ccc(OC)c(CNC(=O)Cc2cccn2-c2ccc(C)cc2)c1,750
3,CCN(CC)C(=O)Nc1ccc(C)c(Cl)c1,827
4,O=C(COc1ccc(F)cc1)N1CC(Oc2cccc(-c3nc(-c4ccccc4)no3)c2)C1,1190
5,CCn1c(=O)oc2cc(S(=O)(=O)N3CCN(C(=O)c4ccnn4C)CC3)ccc21,687
6,COc1ccccc1C(CNC(=O)c1cc(=O)c2ccc(C)c(C)c2o1)N(C)C (centres undefined),639
7,CCc1nc2cc(-c3noc(-c4ccc5ccccc5n4)n3)ccc2o1,1110
8,CC1=C(c2cccc(Cl)c2)S(=O)(=O)N=C1N1CCCN(C(=O)c2ccccn2)CC1,760
9,COc1ccc(NC(=O)c2cc(C)n3nccc3n2)c(C)c1,886
10,CCOC(=O)N1CCN(C(=O)c2cn(CC(O)c3ccccc3)nn2)CC1 (centres undefined),634
11,CCCn1cnc2cc(-c3noc(C(NC(=O)c4ccco4)C(C)C)n3)ccc21 (centres undefined),708
12,Cc1ccc(-c2nnc(-c3nn(C)c4c3CN(S(=O)(=O)c3ccc(C(C)(C)C)cc3)CC4)o2)cc1,1210
13,Cc1ccc(C(=O)Nc2nccnc2C(=O)NCC2CCCO2)cc1 (centres undefined),808
14,O=C(CN1C(=O)NC2(CCCCC2)C1=O)Nc1ccc2c(c1)CCC2,846
15,O=S(=O)(NCc1cccnc1)c1ccc(Cl)cc1,566
16,Cc1nc(-c2noc(-c3cccnc3)n2)cn1CC(=O)NCc1cccs1,662
17,CCNC(=O)C1CCCN(c2nc3ncn(CC(=O)Nc4ccc(C)c(C)c4)c(=O)c3s2)C1 (centres undefined),711
18,Cc1cc(NC(=O)c2c(O)c3cccnc3n(-c3ccc(F)cc3)c2=O)ccc1F,1250
19,CC(C)n1cc(C2=CCN(S(=O)(=O)c3cccc4cccnc34)CC2)c2cccnc21,993
20,O=S(=O)(c1cccnc1)N1CC[C@@H]2COCCN(Cc3cccnc3)[C@@H]2C1,577
21,COc1cccc(C(=O)Nc2ccc3c(c2)Sc2ncccc2C(=O)N3C)c1OC,816
22,COc1ccccc1CNC(=O)C1CCN(S(=O)(=O)c2ccc3[nH]c(=O)ccc3c2)CC1,714

row,Structure (SMILES),RP-LC retention time [s]
1,Cc1cc2nc(C(=O)NCC(C)C)c(=O)n(C)c2cc1C,668
2,N#Cc1cccc(-c2cn3c(n2)N(C(=O)c2ccco2)CCC3)c1,645
3,CCN(CC)S(=O)(=O)c1ccc2c(c1)N(CC(=O)NCc1ccccc1)C(=O)C1CCCCN21 (centres undefined),945
4,COc1cccc(CNC(=O)Cn2ccc3ccc(-c4nnc(C)o4)cc32)c1,756
5,CC(C)Cn1cc(CCNC(=O)c2cncc(Br)c2)c2cccnc21,796
6,Cc1sc(NC(=O)c2ccccc2Br)nc1-c1ccc2c(c1)N(C)C(=O)CO2,960
7,CCOC(=O)C1CCCN(c2nc(Nc3ccc(F)cc3)c3n[nH]nc3n2)C1 (centres undefined),824
8,Cc1ccccc1CNC(=O)C1(C)CCCN(C(=O)NC2CCCCC2)C1 (centres undefined),904
9,COc1ccc(Br)cc1Cn1nnc(C(=O)NCc2ccco2)c1N,791
10,CCc1cccc(C)c1Nc1c(-c2ccc(Cl)cc2)nc2cnccn12,1110
11,CC(C)OC(=O)COc1cc(O)c2c(=O)cc(-c3ccccc3)oc2c1,1170
12,Cc1ccc(-c2cc3c(=O)n(Cc4nc(-c5ccc(F)cc5)no4)ccn3n2)cc1,1330
13,O=c1c2cc(-c3cccs3)nn2cnn1Cc1nc(-c2ccccc2Cl)no1,1040
14,O=C(CCn1cnc2cc(S(=O)(=O)N3CCCC3)ccc21)N1CCN(c2ccccn2)CC1,576
15,Cc1cc(C)c(CNS(=O)(=O)c2cc(-c3nc(C)c(C)s3)cs2)c(C)c1,1310
16,CCCn1c(-c2cccc(C(=O)NC(C)c3ccc(C)cc3C)c2)nc2cccnc21 (centres undefined),955
17,CC(C)NC(=O)CCn1c(=O)c2ccccc2n2c(=O)n(Cc3ccccc3)nc12,801
18,CC1CCCCN1C(=O)CSc1nc(-c2ccccc2)no1 (centres undefined),1070
19,Cc1ccc(C)c(CNC(=O)c2ccc(NC(=O)C3CC3)cc2N2CCOCC2)c1,856
20,CC(C)N1CCCC(Cn2cc(COc3ccc4c(c3)CCC4)nn2)C1 (centres undefined),667
21,Cc1ccccc1NC(=O)Nc1ccc2nnc(C)n2c1,662
22,Cc1ccc(-c2nnc(-c3cccc(S(=O)(=O)NC(C(=O)O)C(C)C)c3)o2)cc1 (centres undefined),874

# — the METLIN SMRT retention time set (Domingo-Almenara et al. 2019)
